Here are results for ten molecules from patent US20240246931A1, “COMPOUNDS AS PD1/PD-L1 INHIBITORS AND METHODS THEREOF” (JUBILANT PRODEL LLC, priority 2021, published 2024).

This assay deals with T1, PD-1/PD-L1 interaction (Homo sapiens, UniProt Q9NZQ7).
T1 construct: purchased CisBio 63ADK000CPAPEG
Put plainly: PD-1/PD-L1 HTRF binding assay (CisBio kit). Conditions: HTRF PD1/PD-L1 inhibition assay. As to the method: PD-L1 Enzyme Assay: Homogenous Time-Resolved Fluorescence (HTRF) Binding Assay
All binding studies were performed using PD-1/PD-L1 Binding Assay Kit from CisBio (Catalog #63ADK000CPAPEG), according to the manufacturer's protocol. The interaction between Tag1-PD-1 and […] was detected by anti-Tag1-Eu^3+ (HTRF donor) and anti-Tag2-XL665 (HTRF acceptor). When the donor and acceptor antibodies were brought to close proximity due to PD-1 and PD-L1 binding, excitation of the donor antibody triggered fluorescent resonance energy transfer (FRET) towards the acceptor antibody, which in turn emitted specifically at 665 nm. This specific signal is positively proportional to PD-1/PD-L1 interaction. The compounds blocking PD-1/PD-L1 interaction will cause a reduction in HTRF signal. The necessary reagents were mixed in the following order: 2 μL compounds (or diluents buffer), 4 μL PD-L1 protein, 4 μL PD-1 protein. After an incubation of 15 minutes, 5 μL of anti-Tag1-Eu^3+ and 5 μL of anti-Tag2-XL665 were added. The plate was sealed and incubated at room temperature for 1 h. The fluorescence emission was read at two different wavelengths (665 nm and 620 nm) on a BMG PheraStar® multi-plate reader.
Results were calculated from the 665 nm and 620 nm fluorescence signal and expressed in HTRF ratio=(665 nm/620 nm)×10^4.
Compounds having IC50<100 nM are designated as “A”; 100-500 nM are designated as “B”; and >500 nM are designated as “C” respectively.
(Time-resolved FRET reads energy transfer from a long-lived donor to a nearby acceptor.)

T1 sequence (Q9NZQ7 19-238 limits assumed): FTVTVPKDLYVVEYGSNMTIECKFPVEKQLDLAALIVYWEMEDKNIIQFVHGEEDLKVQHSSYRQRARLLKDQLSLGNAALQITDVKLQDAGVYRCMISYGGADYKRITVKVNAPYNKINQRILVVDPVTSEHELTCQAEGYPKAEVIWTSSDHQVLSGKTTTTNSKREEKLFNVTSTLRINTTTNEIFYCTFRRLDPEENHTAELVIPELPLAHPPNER

Usually IC50 stands for the concentration needed to halve the response being measured. `Cc1c(COc2cc(OCc3cncc(C#N)c3)c(CN3CCC3CO)c3c2CCC3)cccc1-c1cnc2[nH]ccc2c1` (stereo not shown) [Example 74, 5-(((4-((2-(hydroxymethyl)azetidin-1-yl)methyl)-7-((2-methyl-3-(1H-pyrrolo[2,3-b]pyridin-5-yl)benzyl)oxy)-2,3-dihydro-1H-inden-5-yl)oxy)methyl)nicotinonitrile 2,2,2-trifluoroacetate] came in with an IC50 above 500 nM. Regarding `Cc1c(COc2cc(OCc3cnn(C)c3)c(CN3CCCC[C@H]3CO)c3c2CCC3)cccc1-c1ccccc1` [Example 39, (S)-(1-((5-((1-methyl-1H-pyrazol-4-yl)methoxy)-7-((2-methyl-[1,1′-biphenyl]-3-yl)methoxy)-2,3-dihydro-1H-inden-4-yl)methyl)piperidin-2-yl)methanol], the IC50 fell in the range of 100 to 500 nM. The molecule `Cc1c(COc2cc(OCc3cncc(C#N)c3)c(CN3CCCC[C@H]3CO)c3c2CCC3)cccc1-c1ccc(F)cc1` [Example 46, (S)-5-(((7-((4′-fluoro-2-methyl-[1,1′-biphenyl]-3-yl)methoxy)-4-((2-(hydroxymethyl)piperidin-1-yl)methyl)-2,3-dihydro-1H-inden-5-yl)oxy)methyl)nicotinonitrile] came in with an IC50 of 100 to 500 nM.

Regarding `COc1ccc(-c2cccc(COc3cc(OCc4cncc(C#N)c4)c(CN4CCC4CO)c4c3CCC4)c2C)c(C)c1` (stereo not shown) [Example 58, 5-(((4-((2-(hydroxymethyl)azetidin-1-yl)methyl)-7-((4′-methoxy-2,2′-dimethyl-[1,1′-biphenyl]-3-yl)methoxy)-2,3-dihydro-1H-inden-5-yl)oxy)methyl)nicotinonitrile], the IC50 is above 500 nM.

Regarding `Cc1c(COc2cc(OCc3cn(C)cn3)c(CN3CCC3CO)c3c2CCC3)cccc1-c1ccccc1` (stereo not shown) [Example 41, (1-((5-((1-methyl-1H-imidazol-4-yl)methoxy)-7-((2-methyl-[1,1′-biphenyl]-3-yl)methoxy)-2,3-dihydro-1H-inden-4-yl)methyl)azetidin-2-yl)methanol], the IC50 lay within 100 to 500 nM.

`Cc1c(COc2cc(OCc3cncnc3)c(CN3CCC3CO)c3c2CCC3)cccc1-c1ccccc1` (stereo not shown) [Example 42, (1-((7-((2-methyl-[1,1′-biphenyl]-3-yl)methoxy)-5-(pyrimidin-5-ylmethoxy)-2,3-dihydro-1H-inden-4-yl)methyl)azetidin-2-yl)methanol] yielded a concentration for half-maximal inhibition (IC50) below 100 nM. Molecule `Cc1c(Br)cccc1COc1cc(OCc2cncc(C#N)c2)c(CN2CCC2CO)c2c1CCC2` (stereo not shown) [Example 54, 5-(((7-((3-bromo-2-methylbenzyl)oxy)-4-((2-(hydroxymethyl)azetidin-1-yl)methyl)-2,3-dihydro-1H-inden-5-yl)oxy)methyl)nicotinonitrile] came in with a 50% inhibitory concentration (IC50) above 500 nM. To `Cc1c(COc2cc(OCc3cncc(C#N)c3)c(CN3CCC3CO)c3c2CCC3)cccc1-c1cnn(C)c1` (stereo not shown) [Example 68, 5-(((4-((2-(hydroxymethyl)azetidin-1-yl)methyl)-7-((2-methyl-3-(1-methyl-1H-pyrazol-4-yl)benzyl)oxy)-2,3-dihydro-1H-inden-5-yl)oxy)methyl)nicotinonitrile] belongs above 500 nM. `Cc1c(COc2cc(OCc3cncc(C#N)c3)c(CN3CC(CO)C3)c3c2CCC3)cccc1-c1ccccc1` [Example 14, 5-(((4-((3-(hydroxymethyl)azetidin-1-yl)methyl)-7-((2-methyl-[1,1′-biphenyl]-3-yl)methoxy)-2,3-dihydro-1H-inden-5-yl)oxy)methyl)nicotinonitrile] returned an IC50 below 100 nM. Molecule `Cc1ccc(-c2cccc(COc3cc(OCc4cncc(C#N)c4)c(CN4CCC4CO)c4c3CCC4)c2C)cc1` (stereo not shown) [Example 73, 5-(((7-((2,4′-dimethyl-[1,1′-biphenyl]-3-yl)methoxy)-4-((2-(hydroxymethyl)azetidin-1-yl)methyl)-2,3-dihydro-1H-inden-5-yl)oxy)methyl)nicotinonitrile] gave an IC50 of 100 to 500 nM.
